Data set [1] in a line: Stability of AsA-APPA in pH 7 buffer at 50° C. (residual ratio by UV absorbance). The class given is physicochemical. Particulars: about; neutral aqueous solution, 50° C. The method, then:
L-Ascorbic acid and AsA-APPA produced in Preparation Ex. 2 were dissolved in buffer solutions of pH 7 to concentrations of 50 μM, respectively, and then maintained in a thermostat of 50° C. At constant intervals, UV absorbances were measured at 259 nm for AsA-APPA and at 266 nm for L-ascorbic acid, to evaluate the stabilities of the test samples as residual ratio(%).

Data set [2] can be described thus: Stability in an aqueous base: precipitation and discoloration. In kind it is physicochemical. Also noted: key: -: No precipitation; +: Slight precipitation; ++: Some precipitation; +++: Severe precipitation. To be noted: 3 g in 100 ml water. The method, then: Each 3 g of compounds of Preparation Ex. 3 and Ex. 6 and L-ascorbic acid 2-phosphate magnesium was dissolved in 100 ml of distilled water, and then maintained in a thermostat of 50° C. for 30 minutes.
Colorless or pale-yellow
+++ Severe precipitation

Molecules are shown by their SMILES. Where only a bound is given, the exact number is not on record here.

Turning to `O=C1O[C@H]([C@@H](O)CO)C(O)=C1O` [L-ascorbic acid], the time to decomposition in data set [1] was at most 1 h.
Turning to `NCCCOP(=O)(O)OC1=C(O)[C@@H]([C@@H](O)CO)OC1=O` [Prep. Ex. 3], the Precipitation entry in data set [2] (day 1), in data set [2] (day 3), in data set [2] (day 5), in data set [2] (day 7), in data set [2] (day 9) and in data set [2] (day 11) was “-” in each case. Moreover, the Precipitation entry in data set [2] (day 13), in data set [2] (day 15) and in data set [2] (day 30) was “-” throughout.
For the compound `O=C1O[C@H]([C@@H](O)CO)C(O)=C1OP(=O)([O-])[O-].[Mg+2]` [compound 1, L-ascorbic acid 2-phosphate magnesium, reference compound], the Precipitation result was “-” in data set [2] (day 1); “+” in data set [2] (day 3); “+” in data set [2] (day 5); “++” in data set [2] (day 7); “++” in data set [2] (day 9); “++” in data set [2] (day 11). For the same compound, the Precipitation result in data set [2] (day 13), in data set [2] (day 15) and in data set [2] (day 30) was “+++” each time.

The values above are taken from patent US5916915A, “Water-in-stable L-ascorbic acid derivative and a method for preparation thereof, and a skin-whitening cosmetic composition containing the same” (priority 1997, dated 1999).
